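How tested: cells in 96-well plates exposed to compound for 48 hours at five concentrations. GI50 = concentration required for 50% inhibition of growth.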 Active and inactive are the calls of the source. Cut-off read from the data, not from the text of the source: active = GI50 up to about 1.1 µM and inactive = higher.
Assays:
Experiment in all cases: DTP human tumour cell line panel, 48 h
SK-MEL-2 = system: SK-MEL-2
HL-60 = system: HL-60
Malme-3M = system: Malme-3M
HCT-116 = system: HCT-116
UO-31 = system: UO-31
OVCAR-8 = system: OVCAR-8
SK-OV-3 = system: SK-OV-3
KM-20L2 = system: KM-20L2
K562 = system: K562
MOLT-4 = system: MOLT-4
UACC-257 = system: UACC-257
UACC-62 = system: UACC-62
SK-MEL-5 = system: SK-MEL-5
KM12 = system: KM12
DLD-1 = system: DLD-1
HOP-92 = system: HOP-92
BT-549 = system: BT-549
PC-3 = system: PC-3
786-0 = system: 786-0
LXFL 529 = system: LXFL 529

SMILES	GI50 (SK-MEL-2)	GI50 (HL-60)	GI50 (Malme-3M)	GI50 (HCT-116)	GI50 (UO-31)	GI50 (OVCAR-8)	GI50 (SK-OV-3)	GI50 (KM-20L2)	GI50 (K562)	GI50 (MOLT-4)	GI50 (UACC-257)	GI50 (UACC-62)	GI50 (SK-MEL-5)	GI50 (KM12)	GI50 (DLD-1)	GI50 (HOP-92)	GI50 (BT-549)	GI50 (PC-3)	GI50 (786-0)	GI50 (LXFL 529)
CC(C)=CC(=O)OC1C2C(C)C(=O)OC2C(O)C(C)C2C=CC(=O)C21C (stereo not drawn)	4.15 µM (inactive)	0.826 µM (active)	3.58 µM (inactive)	1.66 µM (inactive)	6.03 µM (inactive)	1.79 µM (inactive)	7.23 µM (inactive)	3.42 µM (inactive)	2.14 µM (inactive)	1.23 µM (inactive)	3.94 µM (inactive)	1.47 µM (inactive)	3.32 µM (inactive)	4.03 µM (inactive)	1.14 µM (inactive)	4.09 µM (inactive)	–	–	–	–
CC(C)CCCCCCCCCCCCC(=O)NCC(=O)NC1C(C)OC(Nc2ncnc3c2ncn3C)C(O)C1O (stereo not drawn)	8.34 µM (inactive)	0.485 µM (active)	2.32 µM (inactive)	1.54 µM (inactive)	1.9 µM (inactive)	4.27 µM (inactive)	3.1 µM (inactive)	4.02 µM (inactive)	> 73.3 µM (inactive)	> 100 µM (inactive)	19.4 µM (inactive)	3.18 µM (inactive)	> 74.3 µM (inactive)	5.47 µM (inactive)	12.1 µM (inactive)	2.41 µM (inactive)	–	–	–	–
CCC1(c2ccc(N)cc2)CCC(=O)NC1=O (stereo not drawn) [AMINOGLUTETHIMIDE]	3510 µM (inactive)	1280 µM (inactive)	2960 µM (inactive)	2620 µM (inactive)	1930 µM (inactive)	3270 µM (inactive)	1190 µM (inactive)	3940 µM (inactive)	2080 µM (inactive)	1440 µM (inactive)	2650 µM (inactive)	1820 µM (inactive)	2090 µM (inactive)	2470 µM (inactive)	3230 µM (inactive)	1030 µM (inactive)	1660 µM (inactive)	1170 µM (inactive)	3420 µM (inactive)	–
O=Cc1cn(C(=O)c2ccccc2)c2ccccc12	> 100 µM (inactive)	28.7 µM (inactive)	> 100 µM (inactive)	43.2 µM (inactive)	36.6 µM (inactive)	> 100 µM (inactive)	> 100 µM (inactive)	> 100 µM (inactive)	70 µM (inactive)	54.2 µM (inactive)	83 µM (inactive)	> 100 µM (inactive)	45 µM (inactive)	64 µM (inactive)	> 100 µM (inactive)	–	–	–	> 100 µM (inactive)	51.3 µM (inactive)
O=C(c1ccccc1)[C@H]1Nc2ccc(Cl)cc2[C@H]2OCCC[C@@H]12	25.4 µM (inactive)	–	25.6 µM (inactive)	16.3 µM (inactive)	15.9 µM (inactive)	20.9 µM (inactive)	–	16.7 µM (inactive)	22.6 µM (inactive)	16.8 µM (inactive)	–	17.8 µM (inactive)	–	19 µM (inactive)	–	–	–	–	–	12.1 µM (inactive)
CN(C)CCC(/C=C/c1ccccc1)=N\Nc1c(F)c(F)c(F)c(F)c1F	41.6 µM (inactive)	16 µM (inactive)	38 µM (inactive)	> 100 µM (inactive)	76.4 µM (inactive)	53.8 µM (inactive)	> 100 µM (inactive)	–	39.4 µM (inactive)	45.1 µM (inactive)	26.4 µM (inactive)	49.2 µM (inactive)	15.5 µM (inactive)	> 100 µM (inactive)	> 100 µM (inactive)	–	–	–	> 100 µM (inactive)	77.8 µM (inactive)
CCOC(=O)CC(=O)ON(C)C(=O)Cc1ccccc1	> 100 µM (inactive)	> 100 µM (inactive)	> 100 µM (inactive)	> 100 µM (inactive)	> 100 µM (inactive)	> 100 µM (inactive)	> 100 µM (inactive)	> 100 µM (inactive)	–	–	> 100 µM (inactive)	> 100 µM (inactive)	> 100 µM (inactive)	> 100 µM (inactive)	> 100 µM (inactive)	–	–	–	> 100 µM (inactive)	> 100 µM (inactive)
COc1ccc(S(=O)(=O)N/N=C(\C)CN2C(=O)c3ccccc3C2=O)cc1	> 100 µM (inactive)	> 100 µM (inactive)	> 100 µM (inactive)	> 100 µM (inactive)	> 100 µM (inactive)	> 100 µM (inactive)	> 100 µM (inactive)	> 100 µM (inactive)	> 100 µM (inactive)	> 100 µM (inactive)	> 100 µM (inactive)	> 100 µM (inactive)	> 100 µM (inactive)	> 100 µM (inactive)	> 100 µM (inactive)	–	–	–	> 100 µM (inactive)	> 100 µM (inactive)
CCOC(=O)[C@H]1Nc2ccc(Cl)cc2[C@H]2OCC[C@@H]12	75 µM (inactive)	> 100 µM (inactive)	> 100 µM (inactive)	> 100 µM (inactive)	–	> 100 µM (inactive)	> 100 µM (inactive)	> 100 µM (inactive)	> 100 µM (inactive)	> 100 µM (inactive)	> 100 µM (inactive)	> 100 µM (inactive)	> 100 µM (inactive)	> 100 µM (inactive)	> 100 µM (inactive)	–	–	–	> 100 µM (inactive)	> 100 µM (inactive)
CS/C(=N\c1ccccc1)N(c1ccccc1)c1nc(=[N+](C)C)ss1.[O-][Cl+3]([O-])([O-])[O-]	2.01 µM (inactive)	0.927 µM (active)	2.79 µM (inactive)	2.56 µM (inactive)	15.1 µM (inactive)	2.44 µM (inactive)	23.9 µM (inactive)	1.06 µM (active)	0.27 µM (active)	1.5 µM (inactive)	2.05 µM (inactive)	0.0441 µM (active)	1.41 µM (inactive)	2.65 µM (inactive)	–	2.79 µM (inactive)	–	–	5.66 µM (inactive)	–
O=C(c1ccc(O)cc1O)C1C(c2ccc(O)cc2)OC(c2ccc(O)cc2)C1C(=O)c1ccc(O)cc1O (stereo not drawn)	22 µM (inactive)	17.8 µM (inactive)	14.2 µM (inactive)	–	18.7 µM (inactive)	21.8 µM (inactive)	–	71 µM (inactive)	–	–	20.5 µM (inactive)	–	16.1 µM (inactive)	21.9 µM (inactive)	44.1 µM (inactive)	–	–	–	5.38 µM (inactive)	17.3 µM (inactive)
Clc1ccc2c(Cl)nc(-c3ccccc3)nc2c1	26.4 µM (inactive)	20.2 µM (inactive)	24.3 µM (inactive)	27.4 µM (inactive)	24.5 µM (inactive)	34 µM (inactive)	14.1 µM (inactive)	25.6 µM (inactive)	23.4 µM (inactive)	20.2 µM (inactive)	26.2 µM (inactive)	19.4 µM (inactive)	16.5 µM (inactive)	36.8 µM (inactive)	27.6 µM (inactive)	–	–	–	–	26.9 µM (inactive)
N#Cc1c(C#N)c(SSc2c(C#N)c(C#N)c(N)n2-c2ccc(F)cc2)n(-c2ccc(F)cc2)c1N	22.4 µM (inactive)	2 µM (inactive)	1.87 µM (inactive)	1.9 µM (inactive)	2.06 µM (inactive)	6.55 µM (inactive)	17.5 µM (inactive)	–	1.76 µM (inactive)	0.619 µM (active)	5.93 µM (inactive)	16.9 µM (inactive)	17.4 µM (inactive)	23.2 µM (inactive)	–	2.96 µM (inactive)	2.88 µM (inactive)	17.9 µM (inactive)	1.79 µM (inactive)	–
CN1OC(=O)N(C)C1c1ccccc1 (stereo not drawn)	> 100 µM (inactive)	> 100 µM (inactive)	> 100 µM (inactive)	> 100 µM (inactive)	> 100 µM (inactive)	> 100 µM (inactive)	> 100 µM (inactive)	> 100 µM (inactive)	> 100 µM (inactive)	> 100 µM (inactive)	> 100 µM (inactive)	> 100 µM (inactive)	> 100 µM (inactive)	> 100 µM (inactive)	> 100 µM (inactive)	> 100 µM (inactive)	–	–	–	–
Cc1ccc(C(=O)CC2=Nc3nnc(CCCCCCCc4nnc5n4C(=O)C(CC(=O)c4ccc(C)cc4)=N5)n3C2=O)cc1	–	> 100 µM (inactive)	> 100 µM (inactive)	> 100 µM (inactive)	> 100 µM (inactive)	> 100 µM (inactive)	> 100 µM (inactive)	> 100 µM (inactive)	> 100 µM (inactive)	> 100 µM (inactive)	> 100 µM (inactive)	> 100 µM (inactive)	> 100 µM (inactive)	> 100 µM (inactive)	> 100 µM (inactive)	–	–	–	> 100 µM (inactive)	> 100 µM (inactive)
Cc1cc(N(CCC#N)CCC#N)ccc1/N=N/c1cccc(C(=O)O)c1	> 100 µM (inactive)	> 100 µM (inactive)	83 µM (inactive)	–	> 100 µM (inactive)	> 100 µM (inactive)	> 100 µM (inactive)	–	> 100 µM (inactive)	> 100 µM (inactive)	> 100 µM (inactive)	60.5 µM (inactive)	> 100 µM (inactive)	> 100 µM (inactive)	> 100 µM (inactive)	–	–	–	> 100 µM (inactive)	> 100 µM (inactive)
C=C(NC(=O)C(=C)NC(=O)c1csc(C2=NC3c4csc(n4)C4NC(=O)c5csc(n5)C(C(C)(O)C(C)O)NC(=O)C5CSC(=N5)/C(=C/C)NC(=O)C(C(C)O)NC(=O)c5csc(n5)C3(CC2)NC(=O)C(C)NC(=O)C(=C)NC(=O)C(=C)NC(=O)C(C(C)C)NC2C=Cc3c(C(C)O)cc(nc3C2O)C(=O)OC4C)n1)C(N)=O (stereo not drawn)	2.22 µM (inactive)	2.24 µM (inactive)	0.239 µM (active)	0.312 µM (active)	60.5 µM (inactive)	0.935 µM (active)	19.6 µM (inactive)	–	0.774 µM (active)	0.364 µM (active)	2.91 µM (inactive)	0.54 µM (active)	1.29 µM (inactive)	2.66 µM (inactive)	–	4.67 µM (inactive)	2.37 µM (inactive)	6.89 µM (inactive)	1.29 µM (inactive)	–

From ChEMBL document CHEMBL1201862, “PubChem BioAssay data set” (2004)
